The values that follow come from publication PMC12751012, “Nanoscale Direct-to-Biology Optimization and Structural Insights into Selective S. aureus TrmD Inhibitors” (Journal of Medicinal Chemistry, 2025).

The target in this assay is T1, S. aureus TrmD (Staphylococcus aureus, UniProt Q2FZ43).
T1 construct: made in house; host or cells: E. coli BL21
T1 sequence (Q2FZ43 1-245): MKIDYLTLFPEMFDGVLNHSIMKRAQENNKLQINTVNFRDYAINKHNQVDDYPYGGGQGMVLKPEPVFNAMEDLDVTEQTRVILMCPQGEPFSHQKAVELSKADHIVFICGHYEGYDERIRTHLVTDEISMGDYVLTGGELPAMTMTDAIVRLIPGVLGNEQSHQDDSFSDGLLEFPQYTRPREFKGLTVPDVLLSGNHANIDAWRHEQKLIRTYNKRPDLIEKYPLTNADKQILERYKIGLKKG
The assay can be described thus: nanoSAR direct-to-biology FP displacement screening of crude triazoles. It counts as binding. The conditions noted are these: crude triazole at 1 μM, assuming full conversion, 500 nM TrmD, 10 nM tracer 4; for inhibition at 1 µM: read-out: % displaced tracer. Put shortly: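 S. aureus TrmD (500 nM) with tracer 4 (10 nM) in Tris/NaCl/MgCl2/glycerol buffer, pH 7.5, was challenged with unpurified triazoles from in situ CuAAC of alkyne 7 with a 320-member azide library.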

For the compound `O=c1[nH]cnc2[nH]cc(-c3cn(-c4ccc5[nH]cnc5c4)nn3)c12` [Compound 03G06, O=C1NC=NC=2NC=C(C=3N=NN(c4cc5N=CNc5cc4)C3)C12], the inhibition at 1 µM is 27%.

For the compound `C[C@H](c1ccc(Cl)cc1)n1cc(-c2c[nH]c3nc[nH]c(=O)c23)nn1` [Compound 02H11, Clc1ccc(cc1)[C@H](N2N=NC(C=3C=4C(=O)NC=NC4NC3)=C2)C], the inhibition at 1 µM turned out to be 41%. Turning to `O=c1[nH]cnc2[nH]cc(-c3cn([C@H]4CCCNC4)nn3)c12` [Compound 01B01, O=C1NC=NC=2NC=C(C=3N=NN(C3)[C@@H]4C[NH2+]CCC4)C12], the inhibition at 1 µM is 29%. On the same count and under the same terms, with `O=c1[nH]cnc2[nH]cc(-c3cn(C[C@H](O)C(F)(F)F)nn3)c12` [Compound 03D12, FC(F)(F)[C@@H](O)CN1N=NC(C=2C=3C(=O)NC=NC3NC2)=C1] the figure was 71%. Consider `Cn1nncc1-n1cc(-c2c[nH]c3nc[nH]c(=O)c23)nn1` [Compound 04B02, O=C1NC=NC=2NC=C(C=3N=NN(C=4N(N=NC4)C)C3)C12], for which the inhibition at 1 µM is 63%. Turning to `COc1cccc(OC)c1Cn1cc(-c2c[nH]c3nc[nH]c(=O)c23)nn1` [Compound 02D12, O=C1NC=NC=2NC=C(C=3N=NN(C3)Cc4c(OC)cccc4OC)C12], the inhibition at 1 µM amounted to 18%. For the compound `O=c1[nH]cnc2[nH]cc(-c3cn(CC(F)(F)c4ccccc4)nn3)c12` [Compound 02H05, FC(F)(c1ccccc1)CN2N=NC(C=3C=4C(=O)NC=NC4NC3)=C2], the inhibition at 1 µM came out at 46%. On the same count and under the same terms, with `COC(=O)Cn1cc(-c2c[nH]c3nc[nH]c(=O)c23)nn1` [Compound 01E05, O=C(OC)CN1N=NC(C=2C=3C(=O)NC=NC3NC2)=C1] the figure was 11%.

Regarding `CCc1nnc(Cn2cc(-c3c[nH]c4nc[nH]c(=O)c34)nn2)o1` [Compound 01D06, O=C1NC=NC=2NC=C(C=3N=NN(C3)CC=4OC(=NN4)CC)C12], the inhibition at 1 µM was determined as 31%. The same measure, in the same setting: with `CN(C)[C@@H]1CCN(CCn2cc(-c3c[nH]c4nc[nH]c(=O)c34)nn2)C1` [Compound 03E03, O=C1NC=NC=2NC=C(C=3N=NN(C3)CC[N@@H+]4C[C@H]([NH+](C)C)CC4)C12] the figure was 40%. The same measure, in the same setting: then `CCN(CC)C(=O)Cn1cc(-c2c[nH]c3nc[nH]c(=O)c23)nn1` [Compound 01C10, O=C1NC=NC=2NC=C(C=3N=NN(C3)CC(=O)N(CC)CC)C12], with 25%; and `O=c1[nH]cnc2[nH]cc(-c3cn(Cc4cccc5ccccc45)nn3)c12` [Compound 01F10, O=C1NC=NC=2NC=C(C=3N=NN(C3)Cc4c5c(ccc4)cccc5)C12], with 84%; and `CC(C)Cn1cc(-c2c[nH]c3nc[nH]c(=O)c23)nn1` [Compound 02F06, O=C1NC=NC=2NC=C(C=3N=NN(C3)CC(C)C)C12], with 1.22%. The same measure, in the same setting: with `COc1nc(OC)nc(-n2cc(-c3c[nH]c4nc[nH]c(=O)c34)nn2)n1` [Compound 03F05, O=C1NC=NC=2NC=C(C=3N=NN(c4nc(OC)nc(OC)n4)C3)C12] the figure was 33%. Consider `Cc1ccc([C@@H](O)Cn2cc(-c3c[nH]c4nc[nH]c(=O)c34)nn2)cc1` [Compound 03D01, O=C1NC=NC=2NC=C(C=3N=NN(C3)C[C@H](O)c4ccc(cc4)C)C12], for which the inhibition at 1 µM is 65%. On to `O=c1[nH]cnc2[nH]cc(-c3cn(-c4cc(F)cc(Cl)c4)nn3)c12` [Compound 01H10, Clc1cc(F)cc(N2N=NC(C=3C=4C(=O)NC=NC4NC3)=C2)c1], for which the inhibition at 1 µM is 12%. On the same count and under the same terms, with `O=c1[nH]cnc2[nH]cc(-c3cn(Cc4cccnn4)nn3)c12` [Compound 01A03, O=C1NC=NC=2NC=C(C=3N=NN(C3)Cc4nnccc4)C12] the figure was 65%; with `O=C1c2ccccc2C(=O)N1CCn1cc(-c2c[nH]c3nc[nH]c(=O)c23)nn1` [Compound 01H05, O=C1N(C(=O)c2c1cccc2)CCN3N=NC(C=4C=5C(=O)NC=NC5NC4)=C3], 13%; with `CCC1(Cn2cc(-c3c[nH]c4nc[nH]c(=O)c34)nn2)COC1` [Compound 03F08, O=C1NC=NC=2NC=C(C=3N=NN(C3)CC4(COC4)CC)C12], 76%. As for `CC(C)CSCCCn1cc(-c2c[nH]c3nc[nH]c(=O)c23)nn1` [Compound 02A03, S(CC(C)C)CCCN1N=NC(C=2C=3C(=O)NC=NC3NC2)=C1], the inhibition at 1 µM turned out to be 35%.

As for `CC(C)n1cc(-c2c[nH]c3nc[nH]c(=O)c23)nn1` [Compound 01A05, O=C1NC=NC=2NC=C(C=3N=NN(C3)C(C)C)C12], the inhibition at 1 µM was 23%.

For `CCOc1ccc(-n2cc(-c3c[nH]c4nc[nH]c(=O)c34)nn2)cc1` [Compound 01D07, O=C1NC=NC=2NC=C(C=3N=NN(c4ccc(OCC)cc4)C3)C12], the inhibition at 1 µM turned out to be 19%. Same read-out and setting: then `O=c1[nH]cnc2[nH]cc(-c3cn([C@H]4CCCNCC4)nn3)c12` [Compound 03A12, O=C1NC=NC=2NC=C(C=3N=NN(C3)[C@@H]4CC[NH2+]CCC4)C12], with 18%; and `CCOCCn1cc(-c2c[nH]c3nc[nH]c(=O)c23)nn1` [Compound 01B12, O=C1NC=NC=2NC=C(C=3N=NN(C3)CCOCC)C12], with 21%; and `Cc1nc2cc(-n3cc(-c4c[nH]c5nc[nH]c(=O)c45)nn3)ccc2s1` [Compound 01H06, S1c2c(N=C1C)cc(N3N=NC(C=4C=5C(=O)NC=NC5NC4)=C3)cc2], with 26%. With `C[C@H](N)Cn1cc(-c2c[nH]c3nc[nH]c(=O)c23)nn1` [Compound 03F01, O=C1NC=NC=2NC=C(C=3N=NN(C3)C[C@@H]([NH3+])C)C12], the “% displaced tracer” value amounted to 56%. With `O=c1[nH]cnc2[nH]cc(-c3cn(Cc4cccs4)nn3)c12` [Compound 02B07, S1C(=CC=C1)CN2N=NC(C=3C=4C(=O)NC=NC4NC3)=C2], the inhibition at 1 µM is 85%. On the same count and under the same terms, with `CC(C)NC(=O)[C@H](C)n1cc(-c2c[nH]c3nc[nH]c(=O)c23)nn1` [Compound 03H02, O=C1NC=NC=2NC=C(C=3N=NN(C3)[C@H](C(=O)NC(C)C)C)C12] the figure was 17%. Consider `O=c1[nH]cnc2[nH]cc(-c3cn(Cc4cc(C(F)F)on4)nn3)c12` [Compound 01G06, FC(F)C=1ON=C(C1)CN2N=NC(C=3C=4C(=O)NC=NC4NC3)=C2], for which the inhibition at 1 µM is 38%. Take `O=c1[nH]cnc2[nH]cc(-c3cn(-c4ccc5nccnc5c4)nn3)c12` [Compound 02B02, O=C1NC=NC=2NC=C(C=3N=NN(c4cc5nccnc5cc4)C3)C12]: the inhibition at 1 µM is 8.54%. Same read-out and setting: with `O=c1[nH]cnc2[nH]cc(-c3cn(CCn4cccn4)nn3)c12` [Compound 01D09, O=C1NC=NC=2NC=C(C=3N=NN(C3)CCN4N=CC=C4)C12] the figure was 39%. On to `O=c1[nH]cnc2[nH]cc(-c3cn(C[C@H]4CCCO4)nn3)c12` [Compound 01C06, O=C1NC=NC=2NC=C(C=3N=NN(C3)C[C@@H]4OCCC4)C12], for which the inhibition at 1 µM amounted to 24%. The same measure, in the same setting: then `CCN(CC)CCn1cc(-c2c[nH]c3nc[nH]c(=O)c23)nn1` [Compound 01H09, O=C1NC=NC=2NC=C(C=3N=NN(C3)CC[NH+](CC)CC)C12], with 27%.

Consider `O=c1[nH]cnc2[nH]cc(-c3cn(-c4ccnc(CO)c4)nn3)c12` [Compound 02D08, O=C1NC=NC=2NC=C(C=3N=NN(c4cc(ncc4)CO)C3)C12], for which the inhibition at 1 µM worked out at 25%.

`O=c1[nH]cnc2[nH]cc(-c3cn(Cc4nccs4)nn3)c12` [Compound 04G04, S1C(=NC=C1)CN2N=NC(C=3C=4C(=O)NC=NC4NC3)=C2]: the inhibition at 1 µM was found to be 68%. Same read-out and setting: then `O=C1CC[C@@H](N2Cc3cc(-n4cc(-c5c[nH]c6nc[nH]c(=O)c56)nn4)ccc3C2=O)C(=O)N1` [Compound 01H08, O=C1N([C@H]2C(=O)NC(=O)CC2)Cc3c1ccc(N4N=NC(C=5C=6C(=O)NC=NC6NC5)=C4)c3], with 23%; and `C[C@@H](Cn1cc(-c2c[nH]c3nc[nH]c(=O)c23)nn1)c1ccccn1` [Compound 03C10, O=C1NC=NC=2NC=C(C=3N=NN(C3)C[C@@H](c4ncccc4)C)C12], with 63%; and `O=C1NCCN1CCn1cc(-c2c[nH]c3nc[nH]c(=O)c23)nn1` [Compound 04G03, O=C1N(CCN2N=NC(C=3C=4C(=O)NC=NC4NC3)=C2)CCN1], with 15%.

Regarding `O=c1[nH]cnc2[nH]cc(-c3cn(CCCCF)nn3)c12` [Compound 01B09, FCCCCN1N=NC(C=2C=3C(=O)NC=NC3NC2)=C1], the inhibition at 1 µM turned out to be 19%. Take `O=c1[nH]cnc2[nH]cc(-c3cn([C@@H]4CCOC4)nn3)c12` [Compound 03E01, O=C1NC=NC=2NC=C(C=3N=NN(C3)[C@H]4COCC4)C12]: the inhibition at 1 µM stood at 27%. On the same count and under the same terms, with `O=c1[nH]cnc2[nH]cc(-c3cn(C[C@@H]4CC[C@@H]5C[C@@H]5C4)nn3)c12` [Compound 03A07, O=C1NC=NC=2NC=C(C=3N=NN(C3)C[C@H]4C[C@@H]5[C@@H](C5)CC4)C12] the figure was 84%; with `CC(C)(C)OC(=O)NC[C@@]1(Cn2cc(-c3c[nH]c4nc[nH]c(=O)c34)nn2)CC12CCC2` [Compound 02E10, O=C(OC(C)(C)C)NC[C@@]1(C2(C1)CCC2)CN3N=NC(C=4C=5C(=O)NC=NC5NC4)=C3], 23%. For the compound `Cc1ccc(-n2cc(-c3c[nH]c4nc[nH]c(=O)c34)nn2)nc1` [Compound 03F10, O=C1NC=NC=2NC=C(C=3N=NN(c4ncc(cc4)C)C3)C12], the inhibition at 1 µM was 18%. `Cc1nnc(Cn2cc(-c3c[nH]c4nc[nH]c(=O)c34)nn2)o1` [Compound 01C02, O=C1NC=NC=2NC=C(C=3N=NN(C3)CC=4OC(=NN4)C)C12]: the inhibition at 1 µM was 27%.
